The values that follow come from patent US9187472B2 (AbbVie Inc., priority 2012, dated 2015).

Experiment [1] concerns the target NAMPT (human, recombinant, C-terminally His-tagged) (Homo sapiens, UniProt P43490). Kind of experiment: Time-Resolved Fluorescence Resonance Energy Transfer (TR-FRET) Binding Assay of NAMPT. The conditions noted are these: without substrates; 6.8 nM NAMPT, 200 nM probe, 3 hours equilibration. A digest of the protocol: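 Compounds, diluted in half-log steps, are mixed with enzyme (6.8 nM), fluorescent probe (200 nM) and Tb-anti-His antibody (1 nM) in pH 7.5 HEPES buffer containing 10 mM MgCl2 and 1 mM DTT. Plates equilibrate 3 h at room temperature; normalized FRET ratios are fitted by four-parameter logistic regression for IC50.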

For the next experiment, the target named is NAMPT (Homo sapiens, UniProt P43490). As to the kind of experiment: TR-FRET Binding Assay of NAMPT with PRPP. The conditions noted are these: with 200 μM PRPP and 2.5 mM ATP; 2 nM NAMPT, 2 nM probe, 16 hours equilibration. A digest of the protocol: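 Compounds were mixed with 2 nM His-tagged NAMPT, 2 nM probe, 1 nM terbium anti-His antibody, 200 μM PRPP and 2.5 mM ATP in assay buffer with 2% DMSO, then left 16 hours to permit possible enzymatic processing of compounds before time-resolved FRET was measured.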

The next experiment relates to PC3 cells. As to the kind of experiment: NAMPT Cell Proliferation Assay. In kind it is cell-based. As to conditions: Homo sapiens, PC-3, 120 h, 5 days incubation, cell viability by Cell Titer Glo. A digest of the protocol:
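Proliferation of PC3 cells treated 5 days with a 10-fold compound series (top 10 μM) was quantified by Cell Titer Glo luminescence; IC50s were fitted from percent inhibition.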

Chain of NAMPT (P43490 whole entry): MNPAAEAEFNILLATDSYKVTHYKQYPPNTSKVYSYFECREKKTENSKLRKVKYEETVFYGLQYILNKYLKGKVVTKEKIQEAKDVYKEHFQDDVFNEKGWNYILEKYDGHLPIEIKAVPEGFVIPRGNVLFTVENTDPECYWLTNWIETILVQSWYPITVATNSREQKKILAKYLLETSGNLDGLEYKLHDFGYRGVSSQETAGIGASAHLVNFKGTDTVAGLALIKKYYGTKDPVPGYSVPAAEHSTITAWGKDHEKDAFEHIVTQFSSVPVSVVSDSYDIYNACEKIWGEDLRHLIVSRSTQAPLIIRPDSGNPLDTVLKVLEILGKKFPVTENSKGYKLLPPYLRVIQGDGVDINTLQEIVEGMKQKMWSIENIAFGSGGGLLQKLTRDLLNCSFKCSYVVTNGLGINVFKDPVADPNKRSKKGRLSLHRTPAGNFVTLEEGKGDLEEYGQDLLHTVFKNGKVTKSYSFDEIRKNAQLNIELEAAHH
Chain of NAMPT (human, recombinant, C-terminally His-tagged) (P43490 whole entry): as above

Regarding `O=C(NCc1ccn2ccnc2c1)c1ccc(C2CCN(S(=O)(=O)C3CC3)CC2)cc1` [Example 684, 4-[1-(cyclopropylsulfonyl)piperidin-4-yl]-N-(imidazo[1,2-a]pyridin-7-ylmethyl)benzamide], the concentration for half-maximal inhibition (IC50) in experiment [1] came out at 481 nM; at NAMPT it was 1.34 nM; with PC3 cells, 320 nM.
The corresponding values for `CC(C)C[C@@H](NC(=O)C1CC1)c1ccc(C(=O)NCc2ccn3ccnc3c2)s1` [Example 685, 5-{(1R)-1-[(cyclopropylcarbonyl)amino]-3-methylbutyl}-N-(imidazo[1,2-a]pyridin-7-ylmethyl)thiophene-2-carboxamide] are 1250 nM, 1.36 nM and 74 nM.
For `CC(C)C[C@@H](NC(=O)CC1CCOC1)c1ccc(C(=O)NCc2ccn3ccnc3c2)s1` (stereo partly drawn) [Example 686, N-(imidazo[1,2-a]pyridin-7-ylmethyl)-5-{(1R)-3-methyl-1-[(tetrahydrofuran-3-ylacetyl)amino]butyl}thiophene-2-carboxamide], in that order: 959 nM, 1.3 nM and 77.2 nM.
For `CC(C)C[C@H](NC(=O)C1CC1)c1ccc(C(=O)NCc2ccn3ccnc3c2)s1` [Example 687, 5-{(1S)-1-[(cyclopropylcarbonyl)amino]-3-methylbutyl}-N-(imidazo[1,2-a]pyridin-7-ylmethyl)thiophene-2-carboxamide], in that order: 97.3 nM, 1.16 nM and 2.19 nM.
Take `O=C(NCc1ccn2ccnc2c1)c1cnc(C2CCN(c3ccccc3)CC2)s1` [Example 688, N-(imidazo[1,2-a]pyridin-7-ylmethyl)-2-(1-phenylpiperidin-4-yl)-1,3-thiazole-5-carboxamide]: the results for the half-maximal inhibitory concentration (IC50) (in experiment [1]; at NAMPT; with PC3 cells) were 1110 nM, 2.66 nM and 5480 nM, respectively.
With `O=C(NCc1ccn2ccnc2c1)Nc1ccc(O[C@@H]2CCN(C(=O)c3ccccc3F)C2)cc1` [Example 689, 1-(4-{[(3R)-1-(2-fluorobenzoyl)pyrrolidin-3-yl]oxy}phenyl)-3-(imidazo[1,2-a]pyridin-7-ylmethyl)urea], the half-inhibitory concentration (IC50) stood at 16 nM in experiment [1], 1.32 nM at NAMPT and 7.21 nM in the experiment with PC3 cells.
In the case of `O=C(NCc1ccn2ccnc2c1)Nc1ccc(O[C@@H]2CCN(C(=O)c3cccc(F)c3)C2)cc1` [Example 690, 1-(4-{[(3R)-1-(3-fluorobenzoyl)pyrrolidin-3-yl]oxy}phenyl)-3-(imidazo[1,2-a]pyridin-7-ylmethyl)urea], the IC50 came to 64.3 nM in experiment [1], 1.22 nM on NAMPT and 13.8 nM in the experiment on PC3 cells.
The corresponding values for `O=C(NCc1ccn2ccnc2c1)Nc1ccc(O[C@@H]2CCN(C(=O)c3ccc(F)cc3)C2)cc1` [Example 691, 1-(4-{[(3R)-1-(4-fluorobenzoyl)pyrrolidin-3-yl]oxy}phenyl)-3-(imidazo[1,2-a]pyridin-7-ylmethyl)urea] are 169 nM, 0.67 nM and 77.7 nM.
The corresponding values for `O=C(NCc1ccn2ccnc2c1)Nc1ccc(O[C@@H]2CCN(C(=O)c3ccc(F)cc3F)C2)cc1` [Example 692, 1-(4-{[(3R)-1-(2,4-difluorobenzoyl)pyrrolidin-3-yl]oxy}phenyl)-3-(imidazo[1,2-a]pyridin-7-ylmethyl)urea] are 83.9 nM, 1.19 nM and 19.8 nM.
The corresponding values for `O=C(NCc1ccn2ccnc2c1)Nc1ccc(O[C@@H]2CCN(C(=O)c3ccc(C(F)(F)F)cc3)C2)cc1` [Example 693, 1-(imidazo[1,2-a]pyridin-7-ylmethyl)-3-[4-({(3R)-1-[4-(trifluoromethyl)benzoyl]pyrrolidin-3-yl}oxy)phenyl]urea] are 781 nM, 1.42 nM and 652 nM.
